Assay results taken from BigSolDB 2.1.

Conditions: in water

Row | solubility (mole fraction) (298.15 K) | solubility (mole fraction) (303.15 K) | solubility (mole fraction) (308.15 K) | solubility (mole fraction) (313.15 K) | solubility (mole fraction) (318.15 K) | solubility (mole fraction) (323.15 K) | solubility (mole fraction) (328.15 K) | solubility (mole fraction) (333.15 K) | SMILES
1 | 3.88e-06 | 4.9e-06 | 6.13e-06 | 7.65e-06 | 9.63e-06 | 1.17e-05 | 1.45e-05 | 1.76e-05 | COc1cc(NS(=O)(=O)c2ccc(N)cc2)ncn1
2 | 3.07e-06 | 3.83e-06 | 4.78e-06 | 5.83e-06 | 7.25e-06 | 8.76e-06 | 1.05e-05 | 1.28e-05 | COc1cc(NS(=O)(=O)c2ccc(N)cc2)nc(OC)n1
3 | 5.52e-06 | 7.19e-06 | 9.26e-06 | 1.17e-05 | 1.48e-05 | 1.88e-05 | 2.34e-05 | 2.92e-05 | COc1cnc(NS(=O)(=O)c2ccc(N)cc2)nc1
4 | 4.82e-06 | 6.2e-06 | 8.23e-06 | 1.05e-05 | 1.33e-05 | 1.7e-05 | 2.1e-05 | 2.62e-05 | Nc1ccc(S(=O)(=O)Nc2ncccn2)cc1
5 | 1.12e-05 | 1.35e-05 | 1.59e-05 | 1.91e-05 | 2.3e-05 | 2.75e-05 | 3.28e-05 | 3.91e-05 | Nc1ccc(S(=O)(=O)[N-]c2cncc(Cl)n2)cc1.[Na+]
